Results from publication PMC9318819 (Viruses, 2022).
Read-outs that look alike come from different tables or passages of the source.

What was measured:
[1] = test system: HIV-1 (PBL286 (02ET_14), subtype C, Ethiopian isolate); test: Anti-HIV screening in PBMC (Southern Research Institute); format: cell-based; conditions: for EC50: read-out: Antiviral Activity EC50; for EC90: read-out: Antiviral Activity EC90; for inhibition at 0.08 µg/mL: read-out: inhibition of HIV replication in PBMC
[2] = in vitro; conditions: human
[3] = test system: CXCR4-tropic HIV isolate NL4-3; test: deCIPhR in vitro anti-HIV replication assay (β-galactosidase, LTR-driven LacZ); format: cell-based
[4] = test system: HeLa-SXR5 cell line; test: Cytotoxicity under deCIPhR cell culture conditions (Alamar Blue, four days); conditions: four days of incubation, any concentration (0.08 to 5 μg/mL)
[5] = test system: Jurkat cells; test: T cell activation, CD69 expression by flow cytometry; format: cell-based; conditions: 24 h
[6] = PBMC viability / cytotoxicity (MTS dye); conditions: human
[7] = test system: HIV-1 in primary CD4+ T cells from cART-suppressed donors; test: Ex vivo latency reversal, supernatant viral RNA by qRT-PCR; format: cell-based; conditions: 24 h, 3 donors
[8] = Cell viability by resazurin dye; format: cell-based; conditions: human, Jurkat T cells (Clone E6-1), parental, lacking HIV provirus, read-out: viability relative to 0.1% DMSO
[9] = Primary cell viability by trypan blue counting; format: cell-based; conditions: human, 3 donors, read-out: viability of primary CD4+ T cells
[10] = test system: HIV provirus expression in J-Lat 10.6 T cells; test: In vitro HIV latency reversal, GFP expression by flow cytometry; format: cell-based; conditions: 24 h
[11] = test system: J-Lat 10.6 cells; test: Effect of PKC inhibitors Gö 6983 and enzastaurin on LRA-induced latency reversal; format: cell-based; conditions: 1 μM Gö 6983
[12] = Human immunodeficiency virus 1, PBMC, subtype C virus
[13] = Human immunodeficiency virus 1, PBMC

In the case of `Cc1cn([C@H]2C[C@H](N=[N+]=[N-])[C@@H](CO)O2)c(=O)[nH]c1=O` [AZT, azidothymidine, reference compound], the EC50 [1, 12] is reported as 7 nM, the EC90 [1, 12] is reported as 50 nM and the “Selectivity Index CC50/IC50” value ([1]; PBMC) is reported as >142. The CC50 [2] was > 1000 nM.
With `O=C1Nc2ccc(Cl)cc2[C@@](C#CC2CC2)(C(F)(F)F)O1` [efavirenz] the inhibition at 0.43 µM ([3]; Human immunodeficiency virus 1, NL43, 430 nM) was 43.9 ± 41.9%, the inhibition at 0.93 µM ([3]; Human immunodeficiency virus 1, NL43, 930 nM) was 111 ± 22.1% and the inhibition at 2 µM ([3]; Human immunodeficiency virus 1, NL43, 2000 nM) was 107 ± 24.1%. The inhibition at 4.3 µM ([3]; Human immunodeficiency virus 1, NL43, 4300 nM) was 100%.
In the case of `C=C(C)C12OC3(/C=C/C=C/CCC)OC1C1C4OC4(CO)C(O)C4(O)C(=O)C(C)=CC4C1(O3)C(C)C2OC(=O)c1ccccc1` (stereo not shown) [Compound 1, yuanhuacine A], the EC50 [1, 13] is reported as 30 nM, the EC90 [1, 13] is reported as 90 nM and the inhibition at 0.08 µg/mL [1, 13] is reported as > 80%. The “Selectivity Index CC50/IC50” value ([1]; PBMC) was >500, the “cytotoxicity (Alamar Blue)” value [4] was “no evidence of cytotoxicity at any concentration” and the CD69-positive cells ([5]; 0.5 μM) was 75.4 ± 2.2%. For the same molecule, the “inhibition of HIV replication across all test concentrations” value ([3]; test concentrations 0.08 to 5 μg/mL) was 65–80%, the CC50 [6] was > 15000 nM and the “average fold increase in viral RNA” value ([7]; 1.5 μM) was 10.8 fold. The “average supernatant viral RNA” value ([7]; 1.5 μM) was 352.5 ± 430.4 copies/mL, the viability at 24 h, 1.5 µM [8] was 51.2 ± 11.2% and the viability at 24 h, 1.5 µM [9] was 96.4 ± 32.2%. The “GFP expression (latency reversal), % of live-gated cells” value (from here on “GFP expression (latency reversal), %”) ([10]; 0.15 μM) was 65.5 ± 6.3%.
For `CC(=O)O[C@@]12C[C@@H](C)[C@@]3(O)[C@@H](C=C(CO)C[C@]4(O)C(=O)C(C)=C[C@@H]34)[C@@H]1C2(C)C` [prostratin, reference compound], the CD69-positive cells ([5]; 2.5 μM) was 73.2 ± 1.3%, the “average fold increase in viral RNA” value ([7]; 10 μM) was 23.2 fold and the “average supernatant viral RNA” value ([7]; 10 μM) was 755.5 ± 1144.2 copies/mL. The viability at 24 h, 0.5 µM ([8]; 0.5 μM) was 56 ± 10%, the viability at 24 h, 10 µM ([9]; 10 μM) was 65.9 ± 12.4% and the “reduction in latency reversal by pan-PKC inhibitor Gö 6983” value ([11]; LRA at 2.5 μM) was 74.7 ± 17.3%. The “GFP expression (latency reversal), %” value ([10]; 2.5 μM) was 66.0 ± 5.7%.
With `C=C(C)C12OC3(/C=C/C=C/CCCCC)OC1C1C4OC4(CO)C(O)C4(O)C(=O)C(C)=CC4C1(O3)C(C)C2OC(=O)c1ccccc1` (stereo not shown) [Compound 2, yuanhuacine] the inhibition at 0.08 µg/mL [1, 13] was > 80%, the CD69-positive cells ([5]; 0.5 μM) was 74.5 ± 1.3% and the “average fold increase in viral RNA” value ([7]; 1.5 μM) was 9.1 fold. For the same molecule, the “average supernatant viral RNA” value ([7]; 1.5 μM) was 297 ± 267 copies/mL, the viability at 24 h, 1.5 µM [8] was 58.5 ± 15.9% and the viability at 24 h, 1.5 µM [9] was 79.6 ± 41.5%. For the same molecule, the “GFP expression (latency reversal), %” value ([10]; 0.15 μM) was 58.2 ± 4.7%.
In the case of `Cc1[nH]c2ccccc2c1CCNCc1ccc(/C=C/C(=O)NO)cc1` [Panobinostat, reference compound], the CD69-positive cells ([5]; 0.1 μM) is reported as 1.5 ± 1.3% and the “effect of Gö 6983 on latency reversal” value ([11]; LRA at 0.1 μM) is reported as “unaffected”.
